From patent US8088753B2, “Heparin conjugates and methods” (Mediplex Corporation, Korea, priority 2007, dated 2012)

Test system: SCC cells
Type: in vivo, C3H/HeN mice
Conditions: 5 mg/kg intraperitoneal twice weekly; Example 7, FIG. 8

bevacizumab: FDA-approved anti-angiogenic monoclonal antibody that binds the receptor binding domain of VEGF
tumor growth inhibition compared with the control: about 74%
